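The compound was tested at five concentrations on cells cultured in 96-well plates, with a 48-hour exposure period. Definition used: TGI = concentration required for complete inhibition of growth.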
What was measured:
Assay in all cases: NCI tumour cell line growth inhibition, 48 h
[1] = test system: EKVX NSCLC
[2] = test system: SF-268 CNS
[3] = test system: MDA-N
[4] = test system: SNB-75 CNS
[5] = test system: SF-539 CNS
[6] = test system: NCI-H460 lung
[7] = test system: NCI/ADR-RES ovarian
[8] = test system: K-562 leukemia
[9] = test system: HOP-62 NSCLC
[10] = test system: OVCAR-5 ovarian

| Compound | TGI [1] [µM] | TGI [2] [µM] | TGI [3] [µM] | TGI [4] [µM] | TGI [5] [µM] | TGI [6] [µM] | TGI [7] [µM] | TGI [8] [µM] | TGI [9] [µM] | TGI [10] [µM] |
| --- | --- | --- | --- | --- | --- | --- | --- | --- | --- | --- |
| OCC1OC(c2cccc3cc(O)c(O)cc23)CC1O (stereo not given) | > 100 | > 100 | > 100 | > 100 | > 100 | > 100 | > 100 | > 100 | > 100 | > 100 |
| CC(=O)Nc1ccc(C(=O)NN2C(=O)CSC2c2ccc([N+](=O)[O-])cc2)cc1 (stereo not given) | > 100 | > 100 | > 100 | > 100 | > 100 | > 100 | > 100 | > 100 | > 100 | > 100 |
| CCN(CC)CCC(=O)/C=C/c1ccccc1 | 22.6 | 15.6 | 26.4 | 28.8 | 37.5 | 32.6 | 55.1 | 13.6 | 54.5 | 31.3 |

Source: PubChem BioAssay (NCI)
